Values joined by “and” are separate entries in the source; they are usually repeats but may differ in a detail not shown here. Equal entries are not always repeated. Toxic doses and inconclusive results are not listed.
Test system: BDF1 mice, P388 leukemia ip, median survival T/C
Experiment: NCI In Vivo Anticancer Drug Screen. Data for tumor model P388 Leukemia (intraperitoneal) in B6D2F1 (BDF1) mice
Settings: endpoint: median survival time, higher = longer survival
Procedure, shortened: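 Mice carrying the transplantable tumour receive compound or vehicle. Survival is followed in each arm, and the treated measure is divided by the vehicle measure.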

COC(C(=O)C(O)C(C)O)C1Cc2cc3cc(OC4CC(OC(C)=O)C(OC5CC(O)C(OC)C(C)O5)C(C)O4)cc(O)c3c(O)c2C(=O)C1OC1CC(OC2CC(OC3CC(C)(O)C(OC(=O)C(C)C)C(C)O3)C(O)C(C)O2)C(O)C(C)O1 (stereo unspecified)
T/C (dose: 0.05 mg/kg/injection, schedule: Q01DX010 (ip), vehicle: saline): 113 % of control
T/C (dose: 0.1 mg/kg/injection, schedule: Q01DX010 (ip), vehicle: saline): 90 % of control
T/C (dose: 0.2 mg/kg/injection, schedule: Q01DX010 (ip), vehicle: saline): 154 % of control
T/C (dose: 0.25 mg/kg/injection, schedule: Q01DX009 (ip), vehicle: other): 150 % of control
T/C (dose: 0.25 mg/kg/injection, schedule: Q01DX009 (ip), vehicle: saline): 111 % of control
T/C (dose: 0.25 mg/kg/injection, schedule: Q01DX010 (ip), vehicle: saline): 154 % of control and 172 % of control
T/C (dose: 0.36 mg/kg/injection, schedule: Q01DX005 (ip), vehicle: carboxymethylcellulose (CMC)): 155 % of control
T/C (dose: 0.37 mg/kg/injection, schedule: Q01DX009 (ip), vehicle: carboxymethylcellulose (CMC)): 155 % of control
T/C (dose: 0.37 mg/kg/injection, schedule: Q01DX009 (sc), vehicle: carboxymethylcellulose (CMC)): 100 % of control
T/C (dose: 0.38 mg/kg/injection, schedule: Q01DX010 (ip), vehicle: saline): 177 % of control
T/C (dose: 0.4 mg/kg/injection, schedule: Q01DX010 (ip), vehicle: saline): 157 % of control and 172 % of control
T/C (dose: 0.5 mg/kg/injection, schedule: Q01DX001 (ip), vehicle: other): 104 % of control
T/C (dose: 0.5 mg/kg/injection, schedule: Q01DX009 (ip), vehicle: other): 162 % of control
T/C (dose: 0.5 mg/kg/injection, schedule: Q01DX009 (ip), vehicle: saline): 94 % of control and 100 % of control
T/C (dose: 0.5 mg/kg/injection, schedule: Q01DX010 (ip), vehicle: saline): 190 % of control and 213 % of control
T/C (dose: 0.75 mg/kg/injection, schedule: Q01DX005 (ip), vehicle: carboxymethylcellulose (CMC)): 165 % of control
T/C (dose: 0.75 mg/kg/injection, schedule: Q01DX009 (ip), vehicle: carboxymethylcellulose (CMC)): 190 % of control
T/C (dose: 0.75 mg/kg/injection, schedule: Q01DX009 (sc), vehicle: carboxymethylcellulose (CMC)): 100 % of control
T/C (dose: 0.75 mg/kg/injection, schedule: Q01DX010 (ip), vehicle: saline): 218 % of control
T/C (dose: 1.0 mg/kg/injection, schedule: Q01DX001 (ip), vehicle: other): 108 % of control
T/C (dose: 1.0 mg/kg/injection, schedule: Q01DX001 (sc), vehicle: carboxymethylcellulose (CMC)): 100 % of control
T/C (dose: 1.0 mg/kg/injection, schedule: Q01DX009 (ip), vehicle: other): 179 % of control
T/C (dose: 1.0 mg/kg/injection, schedule: Q01DX009 (ip), vehicle: saline): 111 % of control and 100 % of control
T/C (dose: 1.0 mg/kg/injection, schedule: Q01DX010 (ip), vehicle: saline): 240 % of control and 227 % of control and 195 % of control
T/C (dose: 1.0 mg/kg/injection, schedule: Q## X003 (ip), vehicle: carboxymethylcellulose (CMC)): 165 % of control
T/C (dose: 1.0 mg/kg/injection, schedule: Q## X008 (ip), vehicle: carboxymethylcellulose (CMC)): 155 % of control
T/C (dose: 1.0 mg/kg/injection, schedule: Q## X024 (ip), vehicle: carboxymethylcellulose (CMC)): 110 % of control
T/C (dose: 1.5 mg/kg/injection, schedule: Q01DX005 (ip), vehicle: carboxymethylcellulose (CMC)): 215 % of control
T/C (dose: 1.5 mg/kg/injection, schedule: Q01DX009 (ip), vehicle: carboxymethylcellulose (CMC)): 235 % of control
T/C (dose: 1.5 mg/kg/injection, schedule: Q01DX009 (oral), vehicle: carboxymethylcellulose (CMC)): 100 % of control
T/C (dose: 1.5 mg/kg/injection, schedule: Q01DX009 (sc), vehicle: carboxymethylcellulose (CMC)): 104 % of control
T/C (dose: 1.5 mg/kg/injection, schedule: Q01DX010 (ip), vehicle: saline): 195 % of control and 218 % of control
T/C (dose: 1.6 mg/kg/injection, schedule: Q01DX010 (ip), vehicle: saline): 161 % of control
T/C (dose: 2.0 mg/kg/injection, schedule: Q01DX001 (ip), vehicle: other): 116 % of control
T/C (dose: 2.0 mg/kg/injection, schedule: Q01DX001 (ip), vehicle: saline): 116 % of control
T/C (dose: 2.0 mg/kg/injection, schedule: Q01DX001 (sc), vehicle: carboxymethylcellulose (CMC)): 100 % of control
T/C (dose: 2.0 mg/kg/injection, schedule: Q01DX009 (ip), vehicle: saline): 111 % of control
T/C (dose: 2.0 mg/kg/injection, schedule: Q01DX010 (ip), vehicle: saline): 227 % of control
T/C (dose: 2.0 mg/kg/injection, schedule: Q## X003 (ip), vehicle: carboxymethylcellulose (CMC)): 150 % of control
T/C (dose: 2.0 mg/kg/injection, schedule: Q## X024 (ip), vehicle: carboxymethylcellulose (CMC)): 90 % of control
T/C (dose: 3.0 mg/kg/injection, schedule: Q01DX005 (ip), vehicle: carboxymethylcellulose (CMC)): 260 % of control
T/C (dose: 3.0 mg/kg/injection, schedule: Q01DX009 (ip), vehicle: carboxymethylcellulose (CMC)): 95 % of control
T/C (dose: 3.0 mg/kg/injection, schedule: Q01DX009 (oral), vehicle: carboxymethylcellulose (CMC)): 90 % of control
T/C (dose: 3.0 mg/kg/injection, schedule: Q01DX009 (sc), vehicle: carboxymethylcellulose (CMC)): 100 % of control
T/C (dose: 3.2 mg/kg/injection, schedule: Q01DX010 (ip), vehicle: saline): 114 % of control
T/C (dose: 4.0 mg/kg/injection, schedule: Q01DX001 (ip), vehicle: carboxymethylcellulose (CMC)): 120 % of control
T/C (dose: 4.0 mg/kg/injection, schedule: Q01DX001 (ip), vehicle: other): 116 % of control
T/C (dose: 4.0 mg/kg/injection, schedule: Q01DX001 (oral), vehicle: carboxymethylcellulose (CMC)): 90 % of control
T/C (dose: 4.0 mg/kg/injection, schedule: Q01DX001 (sc), vehicle: carboxymethylcellulose (CMC)): 100 % of control
T/C (dose: 4.0 mg/kg/injection, schedule: Q01DX009 (ip), vehicle: other): 208 % of control
T/C (dose: 4.0 mg/kg/injection, schedule: Q## X008 (ip), vehicle: carboxymethylcellulose (CMC)): 155 % of control
T/C (dose: 4.0 mg/kg/injection, schedule: Q## X024 (ip), vehicle: carboxymethylcellulose (CMC)): 100 % of control
T/C (dose: 6.0 mg/kg/injection, schedule: Q01DX009 (oral), vehicle: carboxymethylcellulose (CMC)): 90 % of control
T/C (dose: 8.0 mg/kg/injection, schedule: Q01DX001 (oral), vehicle: carboxymethylcellulose (CMC)): 90 % of control
T/C (dose: 8.0 mg/kg/injection, schedule: Q01DX001 (sc), vehicle: carboxymethylcellulose (CMC)): 109 % of control
T/C (dose: 12.0 mg/kg/injection, schedule: Q01DX009 (oral), vehicle: carboxymethylcellulose (CMC)): 100 % of control
T/C (dose: 16.0 mg/kg/injection, schedule: Q01DX001 (oral), vehicle: carboxymethylcellulose (CMC)): 100 % of control
T/C (dose: 32.0 mg/kg/injection, schedule: Q01DX001 (oral), vehicle: carboxymethylcellulose (CMC)): 90 % of control
T/C (dose: 25.0 micrograms/kg/injection, schedule: Q01DX010 (ip), vehicle: saline): 100 % of control
T/C (dose: 50.0 micrograms/kg/injection, schedule: Q01DX010 (ip), vehicle: saline): 122 % of control
T/C (dose: 62.5 micrograms/kg/injection, schedule: Q01DX010 (ip), vehicle: saline): 109 % of control
T/C (dose: 125.0 micrograms/kg/injection, schedule: Q01DX010 (ip), vehicle: saline): 109 % of control
T/C (dose: 200.0 micrograms/kg/injection, schedule: Q01DX010 (ip), vehicle: saline): 154 % of control
T/C (dose: 400.0 micrograms/kg/injection, schedule: Q01DX010 (ip), vehicle: saline): 154 % of control
T/C (dose: 500.0 micrograms/kg/injection, schedule: Q01DX010 (ip), vehicle: saline): 209 % of control
T/C (dose: 800.0 micrograms/kg/injection, schedule: Q01DX010 (ip), vehicle: saline): 181 % of control

From PubChem BioAssay AID328 (DTP/NCI, 2004)
